Test results: patent US11090266B2, “Nanoliposomal c-MYC-siRNA inhibits in vivo tumor growth of cisplatin-resistant ovarian cancer” (priority 2014, dated 2021)

System: A2780CP20 tumors
Experiment: Therapeutic efficacy in A2780CP20 tumor-bearing nude mice
Type: in vivo
Details: siRNA-DOPC 5 μg siRNA/injection, CIS 160 μg/injection, i.p. once a week for 4 weeks
Experimental: c-MYC was overexpressed in cells with low c-MYC levels (A2780) (FIG. 16A). The rate of cell proliferation of these cells were higher compared with empty vectors (FIG. 16B). The effect of nanoliposomal-c-MYC-siRNA was tested on target depletion, and therapy efficacy. Nude mice were injected intraperitoneally (i.p.) with A2780CP20 cells. A nude mice-bearing tumors were injected i.p. with nanoliposomal siRNAs. Seven days post-injection, mice were sacrificed and the tumors were dissected. As shown is FIG. 18A, the anti-tumor effects of nanoliposomal-c-MYC-siRNA as compared to C-siRNA were tested in tumor-bearing mice. […] All nanoliposomal-c-MYC-siRNAs and CIS treatments were injected i.p. once a week for 4 weeks. In vitro experiments were repeated in HEYA8 ovarian cancer cells which express high c-MYC levels (FIG. 19A-19D). Additional liposomal c-MYc-siRNA formulation was performed (FIG. 20A-20D) and FIGS. 22 and 23). […]
As shown in FIG. 16A-16B the directed effect effects of c-MYC overexpression in ovarian cancer cells. […] Cell viability was calculated. […]
DOPC-PEG-cholesterol-based nanoliposomes were used for in vivo c-MYC-siRNA delivery. First, we assessed whether the c-MYC silencing in vivo. […] Tumor weight and number of nodules were assessed in five treatment groups (10 mice each): (a) C-siRNA, (b) cisplatin (CIS) alone, (c) c-MYC-siRNA, (d) C-siRNA plus CIS, and (e) c-MYC-siRNA plus CIS. […]

`N.N.[Cl][Pt][Cl]` [CIS, cisplatin] was tested, and the “tumor weight / tumor growth” value was “did not induce a significant effect on tumor growth”.
